Data: article PMC4911353, “Pharmacologic Inhibition of Host Phosphodiesterase-4 Improves Isoniazid-Mediated Clearance of Mycobacterium tuberculosis” (Frontiers in Immunology, 2016)

System: Mycobacterium tuberculosis CDC1551
Format: in vivo
Details: in vivo, 50 mg/kg

## CCOc1cc([C@@H](CS(C)(=O)=O)N2Cc3cccc(NC(=O)C4CC4)c3C2=O)ccc1OC [CC-11050, N-[2-[(1S)-1-(3-ethoxy-4-methoxyphenyl)-2-(methylsulfonyl)ethyl]-2,3-dihydro-3-oxo-1H-isoindol-4-yl]-(9Cl) cyclopropanecarboxamide]
  Difference in number of lung CFUs versus untreated mice: No significant difference
po
  Lung bacillary load: about 5.5 log10
